Legend:
Format in all cases: cell-based
[1] = biological target: T1, hERG channel (human Ether-a-go-go-Related Gene, Kv11.1) (Homo sapiens, UniProt Q12809); assay: manual whole-cell patch clamp, hERG tail currents in stably expressing HEK293 cells
T1 construct: gene KCNH2

[2] = biological target: T2, hERG channel mutant S631A (Homo sapiens, UniProt Q12809, S631A); assay: whole-cell patch clamp, transiently transfected HEK293 cells; inhibition at […]
T2 construct: gene KCNH2

[3] = biological target: T1, hERG channel (human Ether-a-go-go-Related Gene, Kv11.1); assay: manual whole-cell patch clamp, hERG tail currents in stably expressing HEK293 cells; IC50 extrapolated (maximum tested […])

T1 sequence (Q12809 whole entry): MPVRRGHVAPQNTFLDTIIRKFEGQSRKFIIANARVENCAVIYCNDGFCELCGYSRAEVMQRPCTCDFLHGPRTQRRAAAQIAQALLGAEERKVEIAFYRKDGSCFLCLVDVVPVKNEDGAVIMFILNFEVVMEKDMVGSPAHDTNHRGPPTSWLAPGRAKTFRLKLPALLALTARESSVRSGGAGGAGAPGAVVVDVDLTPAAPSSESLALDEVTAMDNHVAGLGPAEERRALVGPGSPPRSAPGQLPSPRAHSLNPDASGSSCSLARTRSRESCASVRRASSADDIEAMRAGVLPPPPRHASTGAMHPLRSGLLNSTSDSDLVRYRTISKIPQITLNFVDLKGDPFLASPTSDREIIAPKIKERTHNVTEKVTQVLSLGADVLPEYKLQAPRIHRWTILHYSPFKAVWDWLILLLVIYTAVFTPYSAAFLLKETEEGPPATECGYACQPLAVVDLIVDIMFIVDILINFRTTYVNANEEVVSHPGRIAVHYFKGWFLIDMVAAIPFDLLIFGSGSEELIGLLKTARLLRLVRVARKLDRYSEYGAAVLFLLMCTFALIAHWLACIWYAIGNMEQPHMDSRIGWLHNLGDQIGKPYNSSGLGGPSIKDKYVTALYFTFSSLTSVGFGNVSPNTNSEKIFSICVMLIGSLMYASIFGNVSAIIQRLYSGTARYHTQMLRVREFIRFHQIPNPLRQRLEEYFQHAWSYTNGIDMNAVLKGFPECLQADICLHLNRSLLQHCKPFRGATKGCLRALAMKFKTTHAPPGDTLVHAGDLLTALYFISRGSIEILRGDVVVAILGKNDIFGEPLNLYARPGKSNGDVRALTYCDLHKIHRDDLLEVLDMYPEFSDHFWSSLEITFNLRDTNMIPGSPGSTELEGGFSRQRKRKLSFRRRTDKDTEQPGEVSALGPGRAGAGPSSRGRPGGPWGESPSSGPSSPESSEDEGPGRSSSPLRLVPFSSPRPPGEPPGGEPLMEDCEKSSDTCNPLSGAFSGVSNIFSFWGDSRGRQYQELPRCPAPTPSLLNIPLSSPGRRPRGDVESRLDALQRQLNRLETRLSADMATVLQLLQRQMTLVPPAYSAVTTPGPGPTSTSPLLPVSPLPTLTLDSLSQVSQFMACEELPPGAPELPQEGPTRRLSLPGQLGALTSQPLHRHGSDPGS
T2 sequence (Q12809 whole entry S631A): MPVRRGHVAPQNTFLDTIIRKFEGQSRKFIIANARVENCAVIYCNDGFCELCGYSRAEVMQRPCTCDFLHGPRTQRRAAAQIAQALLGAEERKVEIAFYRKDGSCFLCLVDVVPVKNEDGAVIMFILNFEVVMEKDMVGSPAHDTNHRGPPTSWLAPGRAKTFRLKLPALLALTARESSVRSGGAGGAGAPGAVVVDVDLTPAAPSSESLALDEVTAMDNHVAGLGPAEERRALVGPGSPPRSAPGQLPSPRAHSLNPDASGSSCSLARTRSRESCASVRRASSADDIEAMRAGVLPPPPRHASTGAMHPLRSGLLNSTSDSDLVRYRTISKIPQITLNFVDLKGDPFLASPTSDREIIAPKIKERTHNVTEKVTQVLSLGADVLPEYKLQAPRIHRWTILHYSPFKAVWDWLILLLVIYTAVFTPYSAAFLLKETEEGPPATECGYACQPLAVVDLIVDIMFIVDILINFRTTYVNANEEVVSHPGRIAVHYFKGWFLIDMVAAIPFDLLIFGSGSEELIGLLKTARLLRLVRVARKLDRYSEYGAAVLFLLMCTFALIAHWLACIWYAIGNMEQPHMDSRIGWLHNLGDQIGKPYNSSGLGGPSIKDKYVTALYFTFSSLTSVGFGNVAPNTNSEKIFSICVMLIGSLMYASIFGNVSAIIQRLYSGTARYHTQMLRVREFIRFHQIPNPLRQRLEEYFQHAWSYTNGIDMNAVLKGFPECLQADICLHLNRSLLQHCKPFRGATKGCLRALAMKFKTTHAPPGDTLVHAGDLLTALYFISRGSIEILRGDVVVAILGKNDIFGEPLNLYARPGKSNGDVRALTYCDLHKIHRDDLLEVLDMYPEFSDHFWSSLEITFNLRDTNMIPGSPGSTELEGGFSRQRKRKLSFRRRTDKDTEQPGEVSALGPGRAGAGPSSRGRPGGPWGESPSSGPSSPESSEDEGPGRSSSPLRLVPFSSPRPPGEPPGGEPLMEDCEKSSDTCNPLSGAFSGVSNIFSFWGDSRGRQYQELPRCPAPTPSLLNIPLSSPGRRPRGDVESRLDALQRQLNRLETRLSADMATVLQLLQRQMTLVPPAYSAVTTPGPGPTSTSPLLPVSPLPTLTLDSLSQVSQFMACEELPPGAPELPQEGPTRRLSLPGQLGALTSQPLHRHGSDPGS

Compound | IC50 [1] | inhibition at 100 µM [2] | IC50 [3]
C[C@H]1CC[C@@H]2N(C1)C[C@H]1[C@@H]3C[C@H]4[C@@H](C[C@H](O)[C@H]5C[C@@H](O)CC[C@@]54C)[C@@H]3CC[C@@H]1[C@]2(C)O [peimine] | 26.1 ± 3.5 µM |  | 
C[C@H]1CC[C@@H]2N(C1)C[C@H]1[C@@H]3C[C@H]4[C@@H](CC(=O)[C@H]5C[C@@H](O)CC[C@@]54C)[C@@H]3CC[C@@H]1[C@]2(C)O [peiminine] | 36.8 ± 2.5 µM | 12.3 ± 1.4% | 
C[C@H]1CC[C@@H]2N(C1)C[C@H]1[C@@H]3C[C@H]4[C@@H](CC(=O)[C@H]5C[C@@H](O)CC[C@@]54C)[C@@H]3CC[C@H]1[C@]2(C)O [sipeimine] |  |  | ~47.6 µM
